Measured values: BindingDB's records for doi:10.1021/jm00022a006 (Eli Lilly, 1995)

The compounds below were run against Leukotriene B4 receptor 1 (Cavia porcellus) (assay: Binding affinity towards LTB4 receptor guinea pig spleen cells using [3H]LTB4 as radioligand).

Ki [nM]	SMILES
5.9	CCCc1c(OCCCOc2cc(O)c(-c3ccc(F)cc3)cc2CC)cccc1[S+]([O-])c1ccccc1C(=O)O (stereo not drawn) [2-{3-[3-(5-Ethyl-4'-fluoro-2-hydroxy-biphenyl-4-yloxy)-propoxy]-2-propyl-benzenesulfinyl}-benzoic acid]
33	CCCc1c(OCCCOc2cc(O)c(-c3ccc(F)cc3)cc2CC)cccc1C(=O)c1ccccc1C(=O)O [2-{3-[3-(5-Ethyl-4'-fluoro-2-hydroxy-biphenyl-4-yloxy)-propoxy]-2-propyl-benzoyl}-benzoic acid]
42	CCCc1c(OCCCOc2cc(O)c(-c3ccc(F)cc3)cc2CC)cccc1Sc1ccccc1C(=O)O [2-{3-[3-(5-Ethyl-4'-fluoro-2-hydroxy-biphenyl-4-yloxy)-propoxy]-2-propyl-phenylsulfanyl}-benzoic acid]
